Data: BindingDB's records for patent US11566007 (Revolution Medicines, 2023)

Target: GTPase KRas [G12C] (Homo sapiens, UniProt P01116, G12C)
Test: Biochemical Assay
Description: (§1) The purpose of this biochemical assay is to measure the ability of test compounds to covalently label nucleotide-loaded K-Ras isoforms. […] Analysis of raw data may be carried out using Waters MassLynx MS software, with % bound calculated from the deconvoluted protein peaks for labeled and unlabeled K-Ras.

GTPase KRas [G12C], sequence (P01116 whole entry G12C): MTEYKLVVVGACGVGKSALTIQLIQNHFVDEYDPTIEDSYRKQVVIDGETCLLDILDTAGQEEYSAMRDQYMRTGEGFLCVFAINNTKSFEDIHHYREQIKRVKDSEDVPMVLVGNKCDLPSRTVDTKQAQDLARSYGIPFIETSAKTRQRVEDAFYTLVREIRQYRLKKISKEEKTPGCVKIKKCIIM

Compound | IC50
C=CC(=O)N1CC[C@H](C(=O)N(C)[C@H](C(=O)N[C@H]2Cc3cc(O)cc(c3)-c3ccc4c(c3)c(c(-c3ccc(CN5CC[C@@H](O)C5)cc3)n4CC)CC(C)(C)COC(=O)[C@@H]3CCCN(N3)C2=O)C(C)C)C1 [US11566007, Example A1] | in the range around 550 nM
C=CC(=O)N1CC[C@H](C(=O)N(C)[C@H](C(=O)N[C@H]2Cc3cc(O)cc(c3)-c3ccc4c(c3)c(c(-c3ccccc3CCOC)n4CC)CC(C)(C)COC(=O)[C@@H]3CCCN(N3)C2=O)C2CCOCC2)C1 [US11566007, Example A6] | in the range around 550 nM
C=CC(=O)N1CC[C@H](C(=O)N(C)[C@H](C(=O)N[C@H]2Cc3cc(OC(=O)CCN4CCN(C)CC4)cc(c3)-c3ccc4c(c3)c(c(-c3ccccc3CCOC)n4CC)CC(C)(C)COC(=O)[C@@H]3CCCN(N3)C2=O)C(C)C)C1 [US11566007, Example A7] | in the range around 550 nM
C=CC(=O)N1CC[C@H](C(=O)N(C)[C@H](C(=O)N[C@H]2Cc3cc(OC(=O)CN)cc(c3)-c3ccc4c(c3)c(c(-c3ccccc3CCOC)n4CC)CC(C)(C)COC(=O)[C@@H]3CCCN(N3)C2=O)C(C)C)C1 [US11566007, Example A8] | in the range around 550 nM
C=CC(=O)N1CC[C@H](C(=O)N(C)[C@H](C(=O)N[C@H]2Cc3cc(O)cc(c3)-c3ccc4c(c3)c(c(-c3ccc(CN5CCCC5)cc3)n4CC)CC(C)(C)COC(=O)[C@@H]3CCCN(N3)C2=O)C(C)C)C1 [US11566007, Example A10] | in the range around 550 nM
C=CC(=O)N1CCC(F)(C(=O)N(C)[C@H](C(=O)N[C@H]2Cc3cc(O)cc(c3)-c3ccc4c(c3)c(c(-c3ccccc3CCOC)n4CC)CC(C)(C)COC(=O)[C@@H]3CCCN(N3)C2=O)C(C)C)CC1 [US11566007, Example A11] | in the range around 550 nM
C=CC(=O)N1CCC(C(=O)N(C)[C@H](C(=O)N[C@H]2Cc3cc(O)cc(c3)-c3ccc4c(c3)c(c(-c3ccccc3CCOC)n4CC)CC(C)(C)COC(=O)[C@@H]3CCCN(N3)C2=O)C(C)C)CC1 [US11566007, Example A14] | in the range around 550 nM
C=CC(=O)N1CC[C@H](C(=O)N(C)[C@H](C(=O)N[C@H]2Cc3cc(O)cc(c3)-c3ccc4c(c3)c(c(-c3ccccc3OC)n4CC)CC(C)(C)COC(=O)[C@@H]3CCCN(N3)C2=O)C(C)C)C1 [US11566007, Example A17] | in the range around 550 nM
C=CC(=O)N1CCC(F)(C(=O)N(C)[C@H](C(=O)N[C@H]2Cc3cc(O)cc(c3)-c3ccc4c(c3)c(c(-c3ccccc3CN(C)C)n4CC)CC(C)(C)COC(=O)[C@@H]3CCCN(N3)C2=O)C(C)C)CC1 [US11566007, Example A20] | in the range around 55 nM
C=CC(=O)N1CC[C@H](C(=O)N(C)[C@H](C(=O)N[C@H]2Cc3cc(O)cc(c3)-c3ccc4c(c3)c(c(-c3ccccc3[C@@H](C)OC)n4CC)CC(C)(C)COC(=O)[C@@H]3CCCN(N3)C2=O)C(C)C)C1 [US11566007, Example A29] | in the range around 55 nM
C=CC(=O)N1CC[C@H](C(=O)N(C)[C@H](C(=O)N[C@H]2Cc3cc(O)cc(c3)-c3ccc4c(c3)c(c(-c3cccc(CN(C)C)c3)n4CC)CC(C)(C)COC(=O)[C@@H]3CCCN(N3)C2=O)C(C)C)C1 [US11566007, Example A30] | in the range around 550 nM
C=CC(=O)N1CC2(CCN([C@H](C(=O)N[C@H]3Cc4cc(O)cc(c4)-c4ccc5c(c4)c(c(-c4ccccc4CCOC)n5CC)CC(C)(C)COC(=O)[C@@H]4CCCN(N4)C3=O)C(C)C)C2=O)C1 [US11566007, Example A31] | in the range around 55 nM
C=CC(=O)N1CC[C@H](C(=O)N(C)[C@H](C(=O)N[C@H]2Cc3cc(O)cc(c3)-c3ccc4c(c3)c(c(-c3ccc(C5CCN(C)CC5)cc3)n4CC)CC(C)(C)COC(=O)[C@@H]3CCCN(N3)C2=O)C(C)C)C1 [US11566007, Example A39] | in the range around 550 nM
C=CC(=O)N1CC[C@H](C(=O)N(C)[C@H](C(=O)N[C@H]2Cc3cc(N)cc(c3)-c3ccc4c(c3)c(c(-c3ccccc3COC)n4CC)CC(C)(C)COC(=O)[C@@H]3CCCN(N3)C2=O)C(C)C)C1 [US11566007, Example A42] | in the range around 550 nM
C=CC(=O)N1C[C@H](C)[C@H](C(=O)N(C)[C@H](C(=O)N[C@H]2Cc3cc(O)cc(c3)-c3ccc4c(c3)c(c(-c3ccccc3CN(C)C)n4CC)CC(C)(C)COC(=O)[C@@H]3CCCN(N3)C2=O)C2CCCC2)C1 [US11566007, Example A43] | in the range around 55 nM
C=CC(=O)N1CC[C@H](C(=O)N(C)[C@H](C(=O)N[C@H]2Cc3cc(O)cc(c3)-c3ccc4c(c3)c(c(-c3cccnc3COCC)n4CC)CC(C)(C)COC(=O)[C@@H]3CCCN(N3)C2=O)C(C)C)C1 [US11566007, Example A44] | in the range around 55 nM
CCn1c(-c2ccccc2CN(C)C)c2c3cc(ccc31)-c1cc(O)cc(c1)C[C@H](NC(=O)[C@H](C(C)C)N(C)C(=O)c1ccc(NC(=O)/C=C/CN(C)C)cn1)C(=O)N1CCC[C@H](N1)C(=O)OCC(C)(C)C2 [US11566007, Example A46] | in the range around 550 nM
C=CC(=O)N1C[C@H](C)[C@H](C(=O)N(C)[C@H](C(=O)N[C@H]2Cc3cc(O)cc(c3)-c3ccc4c(c3)c(c(-c3ccccc3CN(C)C)n4CC)CC(C)(C)COC(=O)[C@@H]3CCCN(N3)C2=O)C(C)C)C1 [US11566007, Example A52] | in the range around 55 nM
C=CC(=O)N1CC[C@H](C(=O)N(C)[C@H](C(=O)N[C@H]2Cc3cc(O)cc(c3)-c3ccc4c(c3)c(c(-c3cccnc3COC)n4CC)CC(C)(C)COC(=O)[C@@H]3CCCN(N3)C2=O)C2CCCC2)C1 [US11566007, Example A55] | in the range around 55 nM
C=CC(=O)N1C[C@H](C)[C@H](C(=O)N(C)[C@H](C(=O)N[C@H]2Cc3cc(O)cc(c3)-c3ccc4c(c3)c(c(-c3cccnc3COC)n4CC)CC(C)(C)COC(=O)[C@@H]3CCCN(N3)C2=O)C(C)C)C1 [US11566007, Example A56] | in the range around 55 nM
C=CC(=O)N1C[C@H](C)[C@H](C(=O)N(C)[C@H](C(=O)N[C@H]2Cc3cc(O)cc(c3)-c3ccc4c(c3)c(c(-c3cccnc3COC)n4CC)CC(C)(C)COC(=O)[C@@H]3CCCN(N3)C2=O)C2CCCC2)C1 [US11566007, Example A57] | in the range around 55 nM
C=CC(=O)N1CC[C@H](C(=O)N(C)[C@H](C(=O)N[C@H]2Cc3cc(O)cc(c3)-c3ccc4c(c3)c(c(-c3cncc(C#N)c3)n4CC)CC(C)(C)COC(=O)[C@@H]3CCCN(N3)C2=O)C(C)C)C1 [US11566007, Example A62] | in the range around 550 nM
C=CC(=O)N1CC[C@@]2(CCCN([C@H](C(=O)N[C@H]3Cc4cc(O)cc(c4)-c4ccc5c(c4)c(c(-c4ccccc4CCOC)n5CC)CC(C)(C)COC(=O)[C@@H]4CCCN(N4)C3=O)C(C)C)C2=O)C1 [US11566007, Example A63] | in the range around 550 nM
C=CC(=O)N1CC[C@H](C(=O)N(C)[C@H](C(=O)N[C@H]2Cc3cc(O)cc(c3)-c3ccc4c(c3)c(c(-c3cccnc3COC)n4C)CC(C)(C)COC(=O)[C@@H]3CCCN(N3)C2=O)C(C)C)C1 [US11566007, Example A66] | in the range around 550 nM
C=CC(=O)N1CC[C@@]2(CCN([C@H](C(=O)N[C@H]3Cc4cc(O)cc(c4)-c4ccc5c(c4)c(c(-c4ccccc4CCOC)n5CC)CC(C)(C)COC(=O)[C@@H]4CCCN(N4)C3=O)C(C)C)C2=O)C1 [US11566007, Example A68] | in the range around 550 nM
C=CC(=O)N1CC[C@H](C(=O)N(C)[C@H](C(=O)N[C@H]2Cc3cc(O)cc(c3)-c3ccc4c(c3)c(c(-c3cncc(CN(C)C)c3)n4CC)CC(C)(C)COC(=O)[C@@H]3CCCN(N3)C2=O)C(C)C)C1 [US11566007, Example A73] | in the range around 550 nM

Target: GTPase KRas [G13C] (Homo sapiens, UniProt P01116, G13C)
Sequence (P01116 whole entry G13C): as the sequence (P01116 whole entry G12C) above, with C12G, G13C counted along it
Test: Biochemical Assay
Description: as §1

Compound | IC50
C=CC(=O)N1CCCN(C(=O)N(C)[C@H](C(=O)N[C@H]2Cc3cc(O)cc(c3)-c3ccc4c(c3)c(c(-c3ccccc3CCOC)n4CC)CC(C)(C)COC(=O)[C@@H]3CCCN(N3)C2=O)C(C)C)CC1 [US11566007, Example A13] | in the range around 550 nM
C=CC(=O)N1CCN(C(=O)N(C)[C@H](C(=O)N[C@H]2Cc3cc(O)cc(c3)-c3ccc4c(c3)c(c(-c3ccccc3CCOC)n4CC)CC(C)(C)COC(=O)[C@@H]3CCCN(N3)C2=O)C(C)C)CC1 [US11566007, Example A18] | in the range around 550 nM
C=CC(=O)N1C[C@H](C)[C@H](C(=O)N(C)[C@H](C(=O)N[C@H]2Cc3cc(O)cc(c3)-c3ccc4c(c3)c(c(-c3ccccc3CCOC)n4CC)CC(C)(C)COC(=O)[C@@H]3CCCN(N3)C2=O)C(C)C)C1 [US11566007, Example A41] | in the range around 5500 nM
CCn1c(-c2ccccc2CN(C)C)c2c3cc(ccc31)-c1cc(O)cc(c1)C[C@H](NC(=O)[C@H](C(C)C)N(C)C(=O)c1ccc(NC(=O)/C=C/CN(C)C)cn1)C(=O)N1CCC[C@H](N1)C(=O)OCC(C)(C)C2 [US11566007, Example A46] | in the range around 55 nM
CCn1c(-c2ccccc2CN(C)C)c2c3cc(ccc31)-c1cc(O)cc(c1)C[C@H](NC(=O)[C@H](C(C)C)N(C)C(=O)c1ccc(NC(=O)/C=C/CN(C)C)cc1)C(=O)N1CCC[C@H](N1)C(=O)OCC(C)(C)C2 [US11566007, Example A49] | in the range around 550 nM
CCn1c(-c2cnccc2COC)c2c3cc(ccc31)-c1cc(O)cc(c1)C[C@H](NC(=O)[C@H](C(C)C)N(C)C(=O)[C@H]1CCN(C(=O)/C=C/CN(C)C)C1)C(=O)N1CCC[C@H](N1)C(=O)OCC(C)(C)C2 [US11566007, Example A87] | in the range around 550 nM
CCn1c(-c2cccnc2COC)c2c3cc(ccc31)-c1cc(O)cc(c1)C[C@H](NC(=O)[C@H](C(C)C)N(C)C(=O)C1CN(C(=O)C#CCN(C)C)C1)C(=O)N1CCC[C@H](N1)C(=O)OCC(C)(C)C2 [US11566007, Example A97] | < 10 nM

Target: GTPase NRas [G12C] (Homo sapiens, UniProt P01111, G12C)
Sequence (P01111 whole entry G12C): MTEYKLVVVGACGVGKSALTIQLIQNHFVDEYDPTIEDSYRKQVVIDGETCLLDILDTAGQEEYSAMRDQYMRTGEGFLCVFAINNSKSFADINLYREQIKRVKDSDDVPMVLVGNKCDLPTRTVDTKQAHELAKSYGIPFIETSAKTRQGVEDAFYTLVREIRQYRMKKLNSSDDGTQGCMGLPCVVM
Test: Biochemical Assay

Compound | IC50
C=CC(=O)N1CC[C@H](C(=O)N(C)[C@H](C(=O)N[C@H]2Cc3cccc(c3)-c3ccc4c(c3)c(c(-c3ccccc3CCOC)n4CC)CC(C)(C)COC(=O)[C@@H]3CCCN(N3)C2=O)C(C)C)C1 [US11566007, Example A24] | in the range around 5500 nM
